# Test results: patent US20030055065A1, “Tricyclic amide and urea compounds useful for inhibition of G-protein function and for treatment of proliferative diseases” (priority 1993, published 2003)
# Values joined by “and” are separate entries in the source; they are usually repeats but may differ in a detail not shown here. Equal values may be shown once. Read-outs that look alike come from different tables or passages of the source.
# Key:
# [1] = tested on: Ras-CVLS processing in COS monkey kidney cells; test: COS cell assay: Ras-CVLS processing (Western blot); assay type: cell-based; settings: Primates, COS, COS cells; read-out: Inhibition of Ras Processing IC50
# Protocol: 2. […] Effect of farnesyl protein transferase inhibitors on Ras processing and on disordered cell growth induced by transforming Ras. COS monkey kidney cells were transfected by electroporation with the plasmid pSV-SPORT (Gibco/BRL) containing a cDNA insert encoding either Ras-CVLS or Ras-CVLL, leading to transient overexpression of a Ras substrate for either farnesyl protein transferase or geranylgeranyl protein transferase I, respectively (see above). […] After 24 hours, media was removed and fresh media containing the appropriate drugs was re-added. 48 hours after electroporation cells were examined under the microscope to monitor disordered cell growth induced by transforming Ras. Cells expressing transforming Ras become more rounded and refractile and overgrow the monolayer, reminiscent of the transformed phenotype. […] Cells were lysed by homogenization and cell debris was removed by centrifugation at 2000×g for 10 min. Cellular protein was precipitated by addition of ice-cold trichloroacetic acid and redissolved in 100 μl of SDS-electrophoresis sample buffer. […] Proteins resolved on the gels were electroblotted onto nitrocellulose membranes for immunodetection. […] E., et al., (1982), Monoclonal antibodies to the p21 products of the transforming gene of Harvey murine sarcome virus and of the cellular ras gene family, J. Virol. 43: 294-304), in PBS containing 1% fetal calf serum for one hour at room temperature. After washing, membranes were incubated for one hour at room temperature with a 1:5000 dilution of secondary antibody, rabbit anti-rat IgG conjugated to horseradish peroxidase, in PBS containing 1% fetal calf serum.
# [2] = biological target: T1, farnesyl protein transferase (FPT), partially purified from rat brain (Rattus norvegicus, UniProt Q02293+Q04631); test: Inhibition of farnesyl protein transferase (transfer of [3H]farnesyl to Ras-CVLS); assay type: biochemical
# T1 construct: were partially purified from rat brain by ammonium sulfate fractionation followed by Q-Sepharose
# T1 sequence (Q02293 whole entry, one chain of several): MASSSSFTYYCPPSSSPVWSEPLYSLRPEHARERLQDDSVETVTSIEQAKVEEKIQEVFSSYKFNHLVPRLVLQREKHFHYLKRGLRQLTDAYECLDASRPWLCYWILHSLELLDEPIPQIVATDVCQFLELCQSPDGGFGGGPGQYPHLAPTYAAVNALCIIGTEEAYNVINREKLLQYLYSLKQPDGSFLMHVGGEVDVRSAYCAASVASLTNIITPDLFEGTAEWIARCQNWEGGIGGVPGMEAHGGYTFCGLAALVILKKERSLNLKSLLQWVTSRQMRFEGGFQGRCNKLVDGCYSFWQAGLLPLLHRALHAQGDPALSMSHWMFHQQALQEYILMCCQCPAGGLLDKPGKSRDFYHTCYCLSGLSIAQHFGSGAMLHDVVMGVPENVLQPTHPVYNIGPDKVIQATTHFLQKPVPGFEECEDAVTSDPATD
# Outline: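 Transfer of [3H]farnesyl onto E. coli-expressed, His6-tagged Ras-CVLS was measured after 30 min at room temperature. Radiolabelled Ras was TCA-precipitated on ice and filter-harvested, and inhibition was expressed as percent of DMSO control.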
# [3] = tested on: Normal human HEPM fibroblasts; test: Cell Mat Assay: density of mat cells (mIC50); assay type: cell-based
# Protocol: (§1) Compound-induced colony inhibition was assayed by addition of serial dilutions of compound directly to the growth medium 24 h after tumor cell planting, and incubating cells for an additional 14 d to allow colony formation. Assays were terminated by rinsing monolayers twice with phosphate-buffered saline (PBS), fixing the monolayers with a 1% glutaraldehyde solution in PBS, then visualizing tumor cells by staining with X-Gal (Price, J., et al., Lineage analysis in the vertebrate nervous system by retrovirus-mediated gene transfer, Proc. Natl. Acad. Sci.84, 156-160(1987)). […] Both IC50 values were obtained by determining the density of tumor cells and mat cells by visual inspection and enumeration of cells per colony and the number of colonies under the microscope.
# [4] = tested on: T24-BAG4 human bladder carcinoma cells expressing an activated H-ras gene; test: Cell Mat Assay: tumor cell colony inhibition (tIC50); assay type: cell-based; settings: inhibition of tumor cell growth
# Protocol: as §1
# [5] = Ras-CVLS farnesylation, partially purified rat brain FPT, read-out: FPT IC50
# [6] = FPT IC50, Ras-CVLS farnesylation, partially purified rat brain FPT
# [7] = enzyme inhibition, read-out: FPT IC50
SMILES,"IC50 [2, 5]","IC50 ([3]; Homo sapiens, Fibroblast)",IC50 ([4]; Homo sapiens),other results
O=C(Nc1cccnc1)N1CCC(C2c3ccc(Cl)cc3C=Cc3cccnc32)CC1 (centres unmarked) [Example 267],1.33 µM,,,IC50 [1]: 12.5 µM
CC(=O)SCC(C(=O)N1CCC(=C2c3ccc(Cl)cc3CCc3cccnc32)CC1)c1ccccc1 (centres unmarked) [Example 84],0.29 µM,,,IC50 [1]: > 9.7 µM
O=C(Cc1ccccn1)N1CCN(C2c3ccc(Cl)cc3CCc3cccnc32)CC1 (centres unmarked) [Example 196],,> 50 µM,37 µM,"IC50 [2, 6]: 0.36 µM; IC50 ([4]; listed as 196 (5.69)): 25 µM"
CC(C)(C)c1cnc2c(c1)CCc1cc(Cl)ccc1C2=C1CCN(C(=O)Cc2ccncc2)CC1 [Example 305],,,,FPT inhibition ([2]; at 4 μM): 40% @4 μM; IC50 [3]: > 50 µM; IC50 [4]: 25 µM
O=C(C1CCS(=O)(=O)CC1)N1CCC(=C2c3ccc(Cl)cc3CCc3cccnc32)CC1 [Example 95],4.2 µM,> 50 µM,> 50 µM,
O=C(Cc1ccc(O)c(O)c1)N1CCC(C2c3ccc(Cl)cc3CCc3cccnc32)CC1 (centres unmarked) [Example 321],6 µM,> 50 µM,6.25 µM,
O=C(CCc1ccc(O)cc1)NCC(=O)N1CCN(C2c3ccc(Cl)cc3CCc3cccnc32)CC1 (centres unmarked) [Example 218],9.92 µM,50 µM,37 µM,
O=C(CCCc1ccccc1)N1CCC(=C2c3ccc(Cl)cc3CCc3cccnc32)CC1 [Example 11],4.3 µM,,,IC50 [3]: > 50 µM; IC50 [4]: > 50 µM
O=C(Cc1ccncc1)N1CCC(=C2c3cc(F)ccc3CCc3cccnc32)CC1 [Example 310],3.6 µM,,,IC50 [3]: > 50 µM; IC50 [4]: 25 µM
O=C(Cc1cccnc1)N1CCN(C2c3ccc(Cl)cc3CCc3ccc[n+]([O-])c32)CC1 (centres unmarked) [184 (5.60)],,> 50 µM,12.5 µM,"IC50 [2, 6]: 0.91 µM"
CS(=O)(=O)Nc1ccc(C(=O)N2CCC(=C3c4ccc(Cl)cc4CCc4cccnc43)CC2)cc1 [Example 91],3.9 µM,80 µM,50 µM,
O=C(Cc1ccncc1)N1CCC(=C2c3ccc(Cl)cc3C=Cc3cccnc32)CC1 [Example 307],0.22 µM and 0.14 µM,,,IC50 [3]: 50 µM; IC50 [4]: 12.5 µM
CN(C)c1ccc(CC(=O)N2CCN(C3c4ccc(Cl)cc4CCc4cccnc43)CC2)cc1 (centres unmarked) [Example 189],,> 50 µM,37 µM,"IC50 [2, 6]: 2.44 µM"
O=C(Cc1cccc(O)c1)NCC(=O)N1CCN(C2c3ccc(Cl)cc3CCc3cccnc32)CC1 (centres unmarked) [Example 211],8.17 µM,> 50 µM,37 µM,
O=C(Cc1cccnc1)N1CCN([C@H]2c3ccc(Cl)cc3CCc3cccnc32)CC1 [223 (5.97)],,> 50 µM,8 µM,"IC50 [2, 6]: 0.19 µM and 0.72 µM and 0.61 µM"
O=C(Cc1ccccc1)N1CCN(C2c3ccc(Cl)cc3CCc3cccnc32)CC1 (centres unmarked) [Example 80],,> 50 µM,> 50 µM,"IC50 [2, 6]: 2.73 µM"
O=C(CN1C(=O)c2ccccc2S1(=O)=O)N1CCC(=C2c3ccc(Cl)cc3CCc3cccnc32)CC1 [Example 85],2 µM,,,IC50 [1]: > 37.4 µM
NS(=O)(=O)c1ccc(C(=O)N2CCC(=C3c4ccc(Cl)cc4CCc4cccnc43)CC2)cc1 [Example 90],3.4 µM,> 50 µM,50 µM,
O=C(CSc1ncccn1)N1CCC(=C2c3ccc(Cl)cc3CCc3cccnc32)CC1 [Example 12],4.3 µM,> 50 µM,50 µM,
O=C(c1ccc([N+](=O)[O-])cc1)N1CCC(=C2c3ccc(Cl)cc3CCc3cccnc32)CC1 [Example 10],4.3 µM,> 50 µM,25 µM,
O=C(Cc1cccnc1)N1CCN([C@@H]2c3ccc(Cl)cc3CCc3cccnc32)CC1 [223 (5.96)],,> 50 µM,25 µM,"IC50 [2, 6]: 2.1 µM"
O=C(Cc1cc[n+]([O-])cc1)N1CCN(C2c3ccc(Cl)cc3CCc3cc(Br)cnc32)CC1 (centres unmarked) [Example 425-H],,> 25 µM,< 1.6 µM,"IC50 ([2]; FPT IC50, enzyme inhibition): 0.059 µM and 0.049 µM and 0.075 µM"
CC(C(=O)N1CCN(C2c3ccc(Cl)cc3CCc3cccnc32)CC1)c1cccnc1 (centres unmarked) [Example 191],4.9 µM,50 µM,< 3.1 µM,

SMILES,"IC50 [2, 5]","IC50 ([3]; Homo sapiens, Fibroblast)",IC50 ([4]; Homo sapiens),other results
C[S+]([O-])c1ccc(C(=O)N2CCC(=C3c4ccc(Cl)cc4CCc4cccnc43)CC2)cc1 (centres unmarked) [Example 94],4 µM,80 µM,40 µM,
O=C(Cc1ccc[n+]([O-])c1)N1CCN(C2c3ccc(Cl)cc3CCc3cc(Br)cnc32)CC1 (centres unmarked) [Example 425-K],,> 25 µM,6.25 µM,"IC50 ([2]; FPT IC50, enzyme inhibition): 0.4 µM and 0.41 µM"
CS(=O)(=O)c1ccc(C(=O)N2CCC(=C3c4ccc(Cl)cc4CCc4cccnc43)CC2)cc1 [Example 93],3.9 µM,> 50 µM,40 µM,
O=C(C1CCCC1)N1CCC(=C2c3ccc(Cl)cc3CCc3cccnc32)CC1 [Example 157],,,,IC50 [1]: 4.5 µM
CC(=O)N1CCC(CC(=O)N2CCN([C@@H]3c4ccc(Cl)cc4CCc4cccnc43)CC2)CC1 [225 (5.98)],3.5 µM,50 µM,12.5 µM,
CC(=O)N1CCC(C(=O)N2CCN([C@@H]3c4ccc(Cl)cc4CCc4cccnc43)CC2)CC1 [226 (5.100)],4.1 µM,> 50 µM,25 µM,
CC(C)(C(=O)N1CCN(C2c3ccc(Cl)cc3CCc3cccnc32)CC1)c1ccncc1 (centres unmarked) [Example 425],,> 25 µM,12.5 µM,"IC50 [2, 7]: 1.74 µM"
O=C(CCc1ccccc1)NCC(=O)N1CCN(C2c3ccc(Cl)cc3CCc3cccnc32)CC1 (centres unmarked) [Example 217],6.75 µM,50 µM,37 µM,
CC(C)(C(=O)N1CCN(C2c3ccc(Cl)cc3CCc3cccnc32)CC1)c1ccccc1 (centres unmarked) [Example 190],3.3 µM,> 50 µM,> 50 µM,
O=C(Cc1ccccc1O)NCC(=O)N1CCN(C2c3ccc(Cl)cc3CCc3cccnc32)CC1 (centres unmarked) [Example 212],7.92 µM,37 µM,25 µM,
O=C(Cc1ccccc1[N+](=O)[O-])N1CCC(=C2c3ccc(Cl)cc3CCc3cccnc32)CC1 [Example 126],2.9 µM,> 50 µM,50 µM,
CC(C)(C(=O)N1CCC(=C2c3ccc(Cl)cc3CCc3cccnc32)CC1)c1cc[n+]([O-])cc1 [Example 411-E],,> 25 µM,> 25 µM,"IC50 [2, 7]: 1.14 µM"
O=C(Nc1ccccc1)N1CCN(C2c3ccc(Cl)cc3CCc3cccnc32)CC1 (centres unmarked) [Example 182],1.09 µM,> 50 µM,37 µM,
O=C(Cc1ccccc1)NCC(=O)N1CCN(C2c3ccc(Cl)cc3CCc3cccnc32)CC1 (centres unmarked) [Example 209],7.92 µM,> 50 µM,25 µM,
O=C(/C=C/c1cccnc1)N1CCC(=C2c3ccc(Cl)cc3CCc3cccnc32)CC1 [Example 96],4.3 µM,> 50 µM,50 µM,
O=C(C1CCC(O)CC1)N1CCC(=C2c3ccc(Cl)cc3CCc3cccnc32)CC1 (centres unmarked) [Example 97],4.4 µM,> 50 µM,> 50 µM,
O=C(Cc1cccnc1)N1CCC(=C2c3ccc(Cl)cc3CCc3ccc[n+]([O-])c32)CC1 [Example 229],4.38 µM,> 50 µM,37 µM,
Nc1cnc2c(c1)C=Cc1cc(Cl)ccc1C2C1CCN(C(=O)Cc2ccncc2)CC1 (centres unmarked) [Example 402-A],,> 25 µM,3.1 µM,"IC50 ([2]; FPT IC50, enzyme inhibition): 0.45 µM and 0.56 µM"
O=C(Cc1cccnc1)N1CCN(C2c3ccc(Cl)cc3CCc3c(Cl)ccnc32)CC1 (centres unmarked) [Example 355],,> 25 µM,8 µM,"IC50 [2, 6]: 0.88 µM"
Nc1cc2c(nc1Br)C(=C1CCN(C(=O)Cc3ccncc3)CC1)c1ccc(Cl)cc1CC2 [Example 405],,> 25 µM,12.5 µM,"IC50 [2, 7]: 1.3 µM"
O=C(NCc1ccccc1)N1CCC(C2c3ccc(Cl)cc3CCc3cccnc32)CC1 (centres unmarked) [Example 318],4.1 µM,37 µM,37 µM,
O=C(Cc1ccc(O)cc1)N1CCC(=C2c3ccc(Cl)cc3CCc3cccnc32)CC1 [Example 128],3 µM,> 50 µM,25 µM,
